# Reference: PMC6600665, “Identification and Characterization of Approved Drugs and Drug-Like Compounds as Covalent Escherichia coli ClpP Inhibitors” (International Journal of Molecular Sciences, 2019)
# pIC50: −log10 of the molar value. Values joined by “and” are separate entries in the source; they are usually repeats but may differ in a detail not shown here. Identical values can stand only once. Peptide text beside a SMILES is read from it.
# Assays:
# E. coli ClpP [1] = molecular target: T1, E. coli ClpP (Escherichia coli, UniProt P0A6G7); test: Fluorescence-based E. coli ClpP proteolytic activity assay (Suc-LY-AMC), primary screen and dose-response; type: biochemical; conditions: for inhibition at 200 µM: read-out: E. coli ClpP inhibition [%] in the primary screen, primary screen, 200 µM; for Inhibition (%) at 200 μM E. coli ClpP: 200 μM compound concentration; for pIC50: read-out: E. coli ClpP IC50
# T1 construct: His-tag; made in house; host or cells: E. coli SG1146a
# Procedure: Briefly, 25 ng/μL of E. coli ClpP dissolved in a buffer containing 100 mM NaCl, 100 mM 4-(2-hydroxyethyl)-1-piperazineethanesulfonic acid (HEPES) pH 7.5, and 0.05% Brij® 35 were transferred into each well. Test compound addition (final concentration 200 µM) was carried out using an Echo® 550 liquid handling system (Labcyte, Sunnyvale, CA, USA). […] Changes in fluorescence (excitation 350 nm, emission 435 nm) were monitored at 1 min intervals at 30 °C over 1 h using an Infinite M1000 microplate reader (Tecan).
# The assay was carried out as described above with increasing concentrations of test compounds. Dose-response experiments were done at least 3 times independently, each in technical triplicates.
# Calculation of Z prime (Z’) for HTS assay performance was done according to Zhang et al.. Plates were considered for further analyses if Z’ > 0.6 [26].
# MCF-7 cells = test: in vitro; type: cell-based; conditions: for pIC50: 48 h incubation, 1:3 dilutions starting from 200 μM, read-out: Cytotoxicity MCF-7 IC50
# Procedure: (§1) Potential cell toxicity of the tested compounds was evaluated by ATP quantification using the CellTiter-Glo® luminescent cell viability assay (Promega, Madison, WI, USA). […] After incubation, 20 µL of CellTiter-Glo® reagent were added per well and incubated at room temperature in the dark for another 30 min. Luminescence was quantified by an EnVision multi-plate reader (PerkinElmer, Rodgau, Germany).
# HTC-116 cells = test: in vitro; type: cell-based; conditions: for pIC50: 48 h incubation, 1:3 dilutions starting from 200 μM, read-out: Cytotoxicity HTC-116 IC50
# Procedure: as §1
# A549 cells = test: in vitro; type: cell-based; conditions: for pIC50: 48 h incubation, 1:3 dilutions starting from 200 μM, read-out: Cytotoxicity A549 IC50
# Procedure: as §1
# E. coli ClpP [2] = molecular target: T1, E. coli ClpP; test: Surface plasmon resonance binding to immobilized ClpP; conditions: 80 µM, injected over 7 min, 30 min dissociation
# Procedure: E. coli ClpP (80 μg/mL) protein was immobilized, using amine coupling (SPR-AS-HCA-03, Bruker Daltonics Inc., Billerica, MA, USA), onto the surface of the sensor chip of a SIERRA SPR-16 instrument (Bruker Daltonics GmbH, Bremen, Germany). ClpP protein was dissolved in acetate at pH 4. The running buffer contained 150 mM NaCl, 10 mM Hepes, 3 mM EDTA, and 0.05% (v/v) Tween-20. The flow rate for protein immobilization was 10 μL/min. Binding experiments were carried out using running buffer with the addition of 0.8% (v/v) of DMSO and 80 µM test substance (flow rate of 20 μL/min for 7 min and up to 30 min of dissociation time). […] SPR data were analyzed using the Analyzer 3 software (Bruker Daltonics GmbH), which includes algorithms for subtracting reference signals and accounting for non-specific interactions between the solvent and the sensor chip surface.
# E. coli JW0427 (ΔclpP) = test: Growth delay under nitric oxide stress (DPTA NONOate) in M9 medium, clpP-deficient strain; type: cell-based; conditions: for Growth delay in presence of nitric oxide stress: clpP-deficient E. coli, DPTA NONOate, compared with cells without compound
# Procedure: (§2) Assessment of E. coli growth delay in presence of nitric oxide stress was carried out following our recently published protocol, which is an adaptation of the method reported by Robinson and Brynildsen to a 96-well plate format. Fresh MHB medium was inoculated with isolated colonies of E. coli BW25-113 or E. coli JW0427-1, grown on Luria Agar, and left overnight in a shaking incubator (250 rpm) at 37 °C. On the following day, the overnight culture was used to inoculate fresh M9 medium (supplemented with 10 mM glucose) 1:100, and was grown until OD600 ~0.3. Afterwards, the culture was transferred into 96-well, flat-bottom, sterile clear plates (#167008, Nunc, VWR). Bacterial OD600 was adjusted to 0.1 with M9 medium (supplemented with 10 mM glucose). Test compounds were transferred into the 96-well plates, followed by addition of the bacterial culture. Nitric oxide stress was induced by addition of 2 mM DPTA NONOate ((Z)-1-[N-(3-aminopropyl)-N-(3-ammoniopropyl)amino]diazen-1-ium-1,2-diolate, Cayman Chemical, Ann Arbor, MI, USA), dissolved in NaOH (final concentration 0.14 mM). Absorbance measurements (600 nm) were done with a Multiskan GO or Varioskan LUX plate reader (Thermo Fisher Scientific, Finland) at hourly intervals for 24 h. Between measurements, plates were incubated in a shaking incubator (500 rpm) at 37 °C.
# [3] = test system: E. coli BW25-113 (wild type); test: Growth delay under nitric oxide stress (DPTA NONOate) in M9 medium, wild type; type: cell-based; conditions: M9 minimal medium
# Procedure: as §2
# bovine α-chymotrypsin = molecular target: T2, bovine α-chymotrypsin (Bos taurus, UniProt P00766); test: Serine protease selectivity assay with bovine α-chymotrypsin (Suc-LY-AMC); type: biochemical; conditions: 200 μM compound concentration
# T2 construct: purchased Sigma-Aldrich C4129
# Procedure: Compound selectivity was assessed using bovine α-chymotrypsin (#C4129, Sigma-Aldrich, St. Louis, MO, USA) at 200 µM. The assay was carried out as described above, except that 1 ng/μL of α-chymotrypsin and 100 μM of Suc-LY-AMC substrate were dissolved in a buffer containing 150 mM NaCl, 10 mM CaCl2, 50 mM Tris-HCl, and 0.05% Brij® 35.
# [4] = dose-response, 1:3 dilution starting from 200 μM, substrate Suc-LY-AMC
# T1 sequence (P0A6G7 15-207): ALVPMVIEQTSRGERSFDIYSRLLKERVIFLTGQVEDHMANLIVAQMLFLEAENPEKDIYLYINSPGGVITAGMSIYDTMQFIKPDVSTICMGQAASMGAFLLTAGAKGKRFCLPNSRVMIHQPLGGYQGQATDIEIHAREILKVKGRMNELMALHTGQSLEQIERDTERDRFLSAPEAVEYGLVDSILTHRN
smiles,measurement,setting,value
O=C(O)C1CCCCC1C(=O)Nc1ccc(S(=O)(=O)NC2CCCCC2)cc1 (stereo not shown) [2-({4-[(cyclohexylamino)sulfonyl]anilino}carbonyl)cyclohexanecarboxylic acid],E. coli ClpP inhibition [%] in the primary screen,"E. coli ClpP [1]; primary screen, 200 µM",72.93%
CO[C@@]1(NC(=O)C2SC(=C(C(N)=O)C(=O)O)S2)C(=O)N2C(C(=O)O)=C(CSc3nnnn3C)CS[C@@H]21 (stereo partly shown) [cefotetan],inhibition at 200 µM,E. coli ClpP [1],-4.6 to 19.3%
O=c1c(O)c(-c2cc(O)c(O)c(O)c2)oc2cc(O)cc(O)c12 [Myricetin],inhibition at 200 µM,E. coli ClpP [1],76%
"CC(C)C[C@H](NC(=O)OCc1ccccc1)C(=O)N[C@@H](Cc1ccc(O)cc1)C(=O)CCl [Z-LY-CMK, benzyloxycarbonyl-leucyl-tyrosine chloromethyl ketone] (HELM PEPTIDE1{[O=C(OCc1ccccc1)[*:2]].L.Y.[ClC[*:1]]}$$$$V2.0)",Inhibition (%) at 200 μM E. coli ClpP,E. coli ClpP [1],98.6%
same,pIC50,E. coli ClpP [1]; [4],4.85
same,pIC50,MCF-7 cells,7.30
same,Cytotoxicity MCF-7 Ratio (IC50 cytotoxicity/IC50 ClpP),MCF-7 cells,0
same,pIC50,HTC-116 cells,5.45
same,Cytotoxicity HTC-116 Ratio (IC50 cytotoxicity/IC50 ClpP),HTC-116 cells; HTC-116,0.25
same,pIC50,A549 cells,5.15
same,Cytotoxicity A549 Ratio (IC50 cytotoxicity/IC50 ClpP),A549 cells,0.51
same,Covalent / irreversible binding to ClpP by SPR,E. coli ClpP [2],irreversibly binding
"N.N.[Cl][Pt][Cl] [Cisplatin, cisplatin]",Growth delay in presence of nitric oxide stress,E. coli JW0427 (ΔclpP),significantly longer growth delay
same,Inhibition (%) at 200 μM E. coli ClpP,E. coli ClpP [1],96.5%
same,"Inhibition (%) at 200 μM E. coli ClpP, second value","E. coli ClpP [1]; 200 μM, cisplatin was a hit in both screened libraries, second value of the cell",98.7%
same,pIC50,E. coli ClpP [1]; [4],4.51
same,E. coli ClpP inhibition [%] in the primary screen,"E. coli ClpP [1]; primary screen, 200 µM",96.54%
same,"E. coli ClpP inhibition [%] in the primary screen, second library","E. coli ClpP [1]; primary screen, 200 µM, cisplatin present in two libraries (SCREEN-WELL, LOPAC1280), second value",98.67%
same,E. coli ClpP inhibition [%] in the primary screen,"E. coli ClpP [1]; primary screen, 200 µM, listed as cisplatin",> 90%
same,pIC50,MCF-7 cells,5.34
same,pIC50,HTC-116 cells,3.04
same,pIC50,A549 cells,4.06
same,Growth arrest in presence of DPTA NONOate,"[3]; WT E. coli, 50 μM compound plus DPTA NONOate",~ 10 h
same,Bacterial growth in absence of NO• stress,"[3]; WT E. coli, 50 μM compound",comparable to the untreated bacteria
same,Bacterial growth in absence of NO• stress,"[3]; WT E. coli, 100 μM compound",affected bacterial growth
same,"SPR signal (resonance units, RU)",E. coli ClpP [2],high RU values
C[n+]1ccccc1CC(=O)c1ccc(Br)cc1.[I-] [S 24795],E. coli ClpP inhibition [%] in the primary screen,"E. coli ClpP [1]; primary screen, 200 µM",76.27%
CCc1ccc(/C=C2/SC(=S)NC2=O)cc1 [10058-F4],E. coli ClpP inhibition [%] in the primary screen,"E. coli ClpP [1]; primary screen, 200 µM",72.82%
O=C(O)Cn1c(C(=O)Nc2nc(-c3ccccc3Cl)cs2)cc2ccccc21 [SR 27897 hydrate],E. coli ClpP inhibition [%] in the primary screen,"E. coli ClpP [1]; primary screen, 200 µM",84.71%
"NCCCN(CCCN)/[N+]([O-])=N/O [DPTA NONOate, (Z)-1-[N-(3-aminopropyl)-N-(3-ammoniopropyl)amino]diazen-1-ium-1,2-diolate]",Growth arrest by the NO• donor alone,"E. coli JW0427 (ΔclpP); ΔclpP E. coli, 2 mM DPTA NONOate, no test compound, M9 minimal medium",~ 4 h
same,Growth arrest by the NO• donor alone,"[3]; wild-type strain, 2 mM DPTA NONOate, no test compound",~ 3 h
O=C(/C=C/c1ccc(O)cc1)CC(=O)/C=C/c1ccc(O)cc1 [Bisdemethoxycurcumin],inhibition at 200 µM,E. coli ClpP [1],76.5%
CC(=O)Oc1ccccc1C(=O)Nc1ncc([N+](=O)[O-])s1 [Nitazoxanide],inhibition at 200 µM,E. coli ClpP [1],80%
N#CC(C#N)=C(N)/C(C#N)=C/c1cc(O)c(O)c(O)c1 [Tyrphostin 51],inhibition at 200 µM,E. coli ClpP [1],72.8%
COC(=O)N[C@H](C(=O)N[C@@H](Cc1ccccc1)[C@@H](O)CN(Cc1ccc(-c2ccccn2)cc1)NC(=O)[C@@H](NC(=O)OC)C(C)(C)C)C(C)(C)C [Atazanavir],inhibition at 200 µM,E. coli ClpP [1],85%
CO/N=C(\C(=O)N[C@@H]1C(=O)N2C(C(=O)O)=C(CSc3nc(=O)c(=O)[nH]n3C)CS[C@H]12)c1csc(N)n1 [ceftriaxone],inhibition at 200 µM,E. coli ClpP [1],-4.6 to 19.3%
N#CC(C#N)=Cc1ccc(O)c(O)c1 [Tyrphostin 23],inhibition at 200 µM,E. coli ClpP [1],79.3%
CO[C@H]1/C=C/O[C@@]2(C)Oc3c(C)c(O)c4c(O)c(c(/C=N/N5CCN(C6CCCC6)CC5)c(O)c4c3C2=O)NC(=O)/C(C)=C\C=C\[C@H](C)[C@H](O)[C@@H](C)[C@@H](O)[C@@H](C)[C@H](OC(C)=O)[C@@H]1C [Rifapentine],inhibition at 200 µM,E. coli ClpP [1],71.5%
CC1=C(/C=C/C(C)=C/C=C/C(C)=C/C(=O)Nc2ccc(O)cc2)C(C)(C)CCC1 [Retinoic acid p-hydroxyanilide],E. coli ClpP inhibition [%] in the primary screen,"E. coli ClpP [1]; primary screen, 200 µM",74.12%
CCOC(=O)[C@@H](N)CCC(=O)N[C@@H](CSCc1ccccc1)C(=O)N[C@@H](C(=O)OCC)c1ccccc1 [Ezatiostat],E. coli ClpP inhibition [%] in the primary screen,"E. coli ClpP [1]; primary screen, 200 µM",88.80%
N.N.O=C([O-])C1(C(=O)[O-])CCC1.[Pt+2] [carboplatin],E. coli ClpP inhibition [%] in the primary screen,"E. coli ClpP [1]; primary screen, 200 µM",5.4%
O=C(O)c1cc(/N=N/c2ccc(S(=O)(=O)Nc3ccccn3)cc2)ccc1O [Sulfasalazine],inhibition at 200 µM,E. coli ClpP [1],77.3%
O=C(CCC1CCCC1)NCCN1CCOCC1 [3-cyclopentyl-N-[2-(4-morpholinyl)ethyl]propanamide],E. coli ClpP inhibition [%] in the primary screen,"E. coli ClpP [1]; primary screen, 200 µM",84.44%
O=C(O)CCNC(=O)c1ccc(/N=N/c2ccc(O)c(C(=O)O)c2)cc1 [Balsalazide],inhibition at 200 µM,E. coli ClpP [1],76.5%
Cn1c(=O)c2c(ncn2C)n(C)c1=O [caffeine],Covalent / irreversible binding to ClpP by SPR,E. coli ClpP [2],did not show any interaction
CCN(CC)CCNC(=O)c1c(C)[nH]c(/C=C2\C(=O)Nc3ccc(F)cc32)c1C [Sunitinib Malate],inhibition at 200 µM,E. coli ClpP [1],80.7%
N=C(N)N/N=C/c1c(Cl)cccc1Cl [guanabenz],E. coli ClpP IC50,E. coli ClpP [1]; [4],did not confirm as ClpP inhibitor
same,E. coli ClpP inhibition [%] in the primary screen,"E. coli ClpP [1]; primary screen, 200 µM",> 90%
same,inhibition at 200 µM,E. coli ClpP [1],100%
N.N.[Cl-].[Cl][Pt+].c1ccncc1 [cDPCP],Growth delay in presence of nitric oxide stress,E. coli JW0427 (ΔclpP),did not show any significant effect
same,Inhibition (%) at 200 μM E. coli ClpP,E. coli ClpP [1],91.2%
same,pIC50,E. coli ClpP [1]; [4],4.61
same,E. coli ClpP inhibition [%] in the primary screen,"E. coli ClpP [1]; primary screen, 200 µM",91.16% and > 90%
same,pIC50,MCF-7 cells,5.49
same,Cytotoxicity MCF-7 Ratio (IC50 cytotoxicity/IC50 ClpP),MCF-7 cells,0.13
same,pIC50,HTC-116 cells,3.55
same,pIC50,A549 cells,3.88
same,Cytotoxicity A549 Ratio (IC50 cytotoxicity/IC50 ClpP),A549 cells,5.33
same,Bacterial growth in absence of NO• stress,"[3]; WT E. coli, 100 μM compound",clearly influenced
same,Inhibition (%) at 200 μM α-Chymotrypsin,bovine α-chymotrypsin,84.7%
same,"SPR signal (resonance units, RU)",E. coli ClpP [2],high RU values
